ChEMBL document CHEMBL5226359, “Recent research and development of inhibitors targeting sentrin-specific protease 1 for the treatment of cancers” (Eur J Med Chem, 2022)

Tests used:
[1] = biological target: T1, Sentrin-specific protease 1 (Homo sapiens, UniProt Q9P0U3); assay: Inhibition of SENP1 (unknown origin)
T1 sequence (Q9P0U3 whole entry): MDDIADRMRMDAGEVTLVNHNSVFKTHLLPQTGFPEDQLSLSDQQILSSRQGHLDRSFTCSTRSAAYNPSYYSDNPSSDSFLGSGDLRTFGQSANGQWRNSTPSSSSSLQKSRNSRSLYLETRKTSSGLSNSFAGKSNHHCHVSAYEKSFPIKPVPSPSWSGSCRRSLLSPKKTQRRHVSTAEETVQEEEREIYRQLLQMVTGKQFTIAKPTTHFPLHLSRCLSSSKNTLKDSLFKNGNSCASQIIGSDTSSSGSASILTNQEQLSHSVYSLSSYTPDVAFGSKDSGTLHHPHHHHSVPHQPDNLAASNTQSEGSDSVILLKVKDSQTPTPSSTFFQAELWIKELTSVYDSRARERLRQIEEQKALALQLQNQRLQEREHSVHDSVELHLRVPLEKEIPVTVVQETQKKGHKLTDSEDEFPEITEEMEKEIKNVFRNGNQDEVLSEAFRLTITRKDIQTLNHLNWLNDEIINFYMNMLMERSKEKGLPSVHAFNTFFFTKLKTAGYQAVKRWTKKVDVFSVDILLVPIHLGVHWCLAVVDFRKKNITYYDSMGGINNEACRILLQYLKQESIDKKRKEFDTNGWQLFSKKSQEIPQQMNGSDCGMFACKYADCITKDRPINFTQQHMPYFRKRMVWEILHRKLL

[2] = biological target: T1, Sentrin-specific protease 1; assay: Inhibition of human full-length recombinant SENP1

Structure (SMILES) | IC50 [1] [µM] | IC50 [2] [µM]
CCCCOc1ccc(-c2nonc2NC(=O)COc2ccccc2C)cc1 | > 30 | 
Cc1cc(OCC(=O)Nc2nonc2NC(=O)COc2ccc(Cl)c(C)c2)ccc1Cl | > 30 | 
O=C(Cc1ccccc1)Oc1c(OC(=O)Cc2ccccc2)c(-c2ccc(O)cc2)c(O)c(O)c1-c1ccc(O)cc1 [VIALININ A] |  | 1.6
